Test results: publication PMC11721616, “Evaluation of N-alkyl isatins and indoles as acetylcholinesterase and butyrylcholinesterase inhibitors” (Journal of Enzyme Inhibition and Medicinal Chemistry, 2023)
“And” between values parts separate entries of the source, which are not always exact repeats. Equal entries are not always repeated. Where two headings read alike, the source gives them in different places.

Experiments:
BChE [1] = biological target: T1, BChE (Equus caballus, UniProt P81908); details: previously reported; cited from earlier work
T1 construct: BChE (Lee Biosolutions, Product No. 130–10-1, from equine serum); purchased Lee Biosolutions 130–10-1; host or cells: equine serum

AChE [2] = biological target: T2, AChE (Electrophorus electricus, UniProt O42275); details: values previously determined; cited from earlier work
T2 construct: purchased Sigma-Aldrich C2888

AChE [3] = biological target: T2, AChE; details: previously reported; cited from earlier work
BChE [4] = details: previously reported by Hyatt et al.; cited from earlier work
AChE [5] = details: previously reported by Hyatt et al.; cited from earlier work
BChE [6] = biological target: T1, BChE; assay: biochemical; assay type: biochemical; details: for Selectivity: calculated as AChE IC50/BChE IC50
Procedure: (§1) Inhibition of AChE (Sigma-Aldrich, Product No. C2888, from Electrophorus electricus) and BChE (Lee Biosolutions, Product No. 130–10-1, from equine serum) was carried out as previously described by our lab[18]^,[19]. Briefly, compounds to be tested were prepared in sodium phosphate (dibasic) buffer (0.1 M) containing 10% DMSO and then diluted with phosphate buffer across the wells of a 96-well plate to reach desired concentrations (50 µL total well volume). AChE (50 µL, 400 U/L, in phosphate buffer) or BChE (50 µL, 400 U/L, in phosphate buffer) was added to the appropriate wells. After incubation, the enzymatic reaction was initiated with 100 µL of a 1:1 (v/v) solution of acetylthiocholine (ATC, 2 mM in phosphate buffer) or butyrylthiocholine (BTC, 2 mM in phosphate buffer) and 5,5′-dithiobis-(2-nitrobenzoic acid) (DTNB, 1 mM in phosphate buffer). […] IC50 values were calculated using GraphPad Prism 9.1.1.
(§2) The synthesis of the target molecules 4a-j and 5a-j was carried out in straightforward fashion by substitution of isatin or indole with iodomethane or 1-bromoalkanes in the presence of K2CO3 and DMF or NaOH and DMSO (Scheme 1). […] A DEPT135 experiment was run to differentiate this signal (negative) from the solvent (positive) (see supplementary data), as we have employed previosuly. The synthesised compounds were then evaluated as AChEI and BChEI using the established Ellman method. Results are reported as IC50 values in Table 1.

AChE [7] = biological target: T2, AChE; assay: AChE inhibition assay (Ellman method); assay type: biochemical
Procedure: as §1, §2

BChE [8] = biological target: T1, BChE; assay: Kinetics assay of BChE inhibition (Lineweaver-Burk plot); assay type: biochemical, equine; details: Lineweaver-Burk analysis with respect to butyrylthiocholine (BTC)
Procedure: (§3) Kinetics assays of 4i inhibition with AChE and BChE were also carried out as previously described[18]^,[19]. Briefly, varying concentrations of 4i were incubated with AChE and BChE before initiating the enzymatic reactions by addition of 100 µL of a 1:1 (v/v) solution of ATC or BTC (0.4 mM, 0.5 mM, 1 mM, or 2 mM in phosphate buffer) and DTNB (1 mM in phosphate buffer) to all wells. […] Rate vs concentration was fitted to a Lineweaver-Burk plot using GraphPad Prism 9.1.1.

AChE [9] = biological target: T2, AChE; assay: Kinetics assay of AChE inhibition (Lineweaver-Burk plot); assay type: biochemical; details: Lineweaver-Burk analysis with respect to acetylthiocholine (ATC)
Procedure: as §3

BChE [10] = biological target: T1, BChE; details: read-out: BChE IC50; values previously determined; cited from earlier work
[11] = mean of three independent experiments ± SEM, > X = highest soluble concentration tested, read-out: BChE IC50
[12] = mean of three independent experiments ± SEM, > X = highest soluble concentration tested, read-out: AChE IC50

T2 sequence (O42275 24-633): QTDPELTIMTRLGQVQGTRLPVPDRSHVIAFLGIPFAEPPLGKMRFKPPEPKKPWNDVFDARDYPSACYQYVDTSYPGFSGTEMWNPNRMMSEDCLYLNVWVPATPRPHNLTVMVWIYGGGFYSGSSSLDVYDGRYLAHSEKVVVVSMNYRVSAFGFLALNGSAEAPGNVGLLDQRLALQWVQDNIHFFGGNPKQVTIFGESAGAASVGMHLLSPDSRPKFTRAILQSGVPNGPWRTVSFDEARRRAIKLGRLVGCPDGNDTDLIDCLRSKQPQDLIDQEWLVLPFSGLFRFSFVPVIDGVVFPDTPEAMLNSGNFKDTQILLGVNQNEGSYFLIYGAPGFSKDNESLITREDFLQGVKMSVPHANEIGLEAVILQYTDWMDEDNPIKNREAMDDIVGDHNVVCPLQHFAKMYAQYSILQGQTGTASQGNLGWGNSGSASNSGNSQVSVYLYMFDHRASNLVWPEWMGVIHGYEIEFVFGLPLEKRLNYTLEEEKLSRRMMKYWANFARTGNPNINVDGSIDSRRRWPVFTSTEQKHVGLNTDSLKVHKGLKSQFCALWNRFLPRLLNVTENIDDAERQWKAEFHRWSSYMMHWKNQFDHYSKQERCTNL
T1 sequence (P81908 whole entry): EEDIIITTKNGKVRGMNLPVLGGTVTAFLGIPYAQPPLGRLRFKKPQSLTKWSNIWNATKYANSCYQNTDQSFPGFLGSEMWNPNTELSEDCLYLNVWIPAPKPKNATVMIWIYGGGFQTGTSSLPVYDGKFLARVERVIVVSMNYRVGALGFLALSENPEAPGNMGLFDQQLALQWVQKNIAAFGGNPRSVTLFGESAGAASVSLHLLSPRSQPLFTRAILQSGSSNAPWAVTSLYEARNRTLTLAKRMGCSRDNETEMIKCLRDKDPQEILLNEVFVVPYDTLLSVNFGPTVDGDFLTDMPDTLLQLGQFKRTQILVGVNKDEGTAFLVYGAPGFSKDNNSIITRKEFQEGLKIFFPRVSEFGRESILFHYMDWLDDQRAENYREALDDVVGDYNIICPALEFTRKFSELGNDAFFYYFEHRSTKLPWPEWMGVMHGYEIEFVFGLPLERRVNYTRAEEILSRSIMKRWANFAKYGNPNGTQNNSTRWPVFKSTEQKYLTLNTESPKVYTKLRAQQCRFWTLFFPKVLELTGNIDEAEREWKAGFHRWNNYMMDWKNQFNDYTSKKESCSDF

Row | SMILES | Selectivity (BChE [6]) | IC50 (BChE [6]; [11]) | IC50 (AChE [7]; [12]) | further results
1 | O=C1C(=O)N(CCCCCN2C(=O)C(=O)c3ccccc32)c2ccccc21 [Compound 1] | – | – | – | mode of inhibition of BChE (BChE [1]): mixed inhibition
2 | C=C1SC(SCCCN2C(=O)C(=O)c3ccccc32)=NC1(C)C [Compound 3] | – | – | – | IC50 (AChE [2]): 18.2 µM; mode of inhibition of AChE (AChE [3]): non-competitive inhibition
3 | CN1C(=O)C(=O)c2ccccc21 [Compound 4a, 1-Methylindoline-2,3-dione] | < 0.6 | – | – | Ki (BChE [4]): > 100 µM; Ki (AChE [5]): > 100 µM; IC50 (BChE [6]): > 1000 µM; IC50 (AChE [7]): 647 ± 57 µM
4 | CCN1C(=O)C(=O)c2ccccc21 [Compound 4b, 1-Ethylindoline-2,3-dione] | 1.5 | 193 ± 8 µM | 297 ± 35 µM | –
5 | CCCN1C(=O)C(=O)c2ccccc21 [Compound 4c, 1-Propylindoline-2,3-dione] | 2.0 | 257 ± 8 µM | 519 ± 11 µM | –
6 | CCCCN1C(=O)C(=O)c2ccccc21 [Compound 4d, 1-Butylindoline-2,3-dione] | 7.3 | 73.7 ± 1.3 µM | – | IC50 (AChE [2]): 540 ± 23 µM
7 | CCCCCN1C(=O)C(=O)c2ccccc21 [Compound 4e, 1-Pentylindoline-2,3-dione] | 2.4 | 83.8 ± 3.4 µM | 197 ± 51 µM | –
8 | CCCCCCN1C(=O)C(=O)c2ccccc21 [Compound 4f, 1-Hexylindoline-2,3-dione] | > 1.4 | 90.8 ± 2.3 µM | > 125 µM | –
9 | CCCCCCCN1C(=O)C(=O)c2ccccc21 [Compound 4g, 1-Heptylindoline-2,3-dione] | 3.3 | 20.7 ± 3.3 µM | 67.8 ± 7.8 µM | –
10 | CCCCCCCCN1C(=O)C(=O)c2ccccc21 [Compound 4h, 1-Octylindoline-2,3-dione] | > 7.0 | 17.9 ± 1.8 µM | > 125 µM | –
11 | CCCCCCCCCN1C(=O)C(=O)c2ccccc21 [Compound 4i, 1-Nonylindoline-2,3-dione] | 22 and 21.8 | 3.77 ± 0.45 µM | 82.1 ± 8.1 µM | mode of inhibition of BChE (BChE [8]): mixed inhibition; mode of inhibition of AChE (AChE [9]): non-competitive inhibition
12 | CCCCCCCCCCN1C(=O)C(=O)c2ccccc21 [Compound 4j, 1-Decylindoline-2,3-dione] | 12.1 | 5.16 ± 0.66 µM | 62.2 ± 8.5 µM | –
13 | Cn1ccc2ccccc21 [Compound 5a, 1-Methyl-1H-indole] | < 0.7 | – | – | IC50 (BChE [6]): > 125 µM; IC50 (AChE [7]): 86.7 ± 4.5 µM
14 | CCn1ccc2ccccc21 [Compound 5b, 1-Ethyl-1H-indole] | < 0.8 | – | – | IC50 (BChE [6]): > 125 µM; IC50 (AChE [7]): 101 ± 6 µM
15 | CCCn1ccc2ccccc21 [Compound 5c, 1-Propyl-1H-indole] | < 0.6 | > 125 µM | 78.6 ± 2.3 µM | –
16 | CCCCn1ccc2ccccc21 [Compound 5d, 1-Butyl-1H-indole] | – | > 125 µM | > 125 µM | –
17 | CCCCCn1ccc2ccccc21 [Compound 5e, 1-Pentyl-1H-indole] | < 0.8 | > 125 µM | 95 ± 5.9 µM | –
18 | CCCCCCn1ccc2ccccc21 [Compound 5f, 1-Hexyl-1H-indole] | < 0.6 | > 125 µM | 76.2 ± 1.6 µM | –
19 | CCCCCCCn1ccc2ccccc21 [Compound 5g, 1-Heptyl-1H-indole] | < 0.6 | > 62.5 µM | 35 ± 10.5 µM | –
20 | CCCCCCCCn1ccc2ccccc21 [Compound 5h, 1-Octyl-1H-indole] | < 0.8 | > 62.5 µM | 49.5 ± 1.8 µM | –
21 | CCCCCCCCCn1ccc2ccccc21 [Compound 5i, 1-Nonyl-1H-indole] | < 0.7 | > 62.5 µM | 44.6 ± 1.7 µM | loss of potency towards BChE compared to 4i (BChE [6]; inhibition assay, 5i vs 4i): > 17 fold
22 | CCCCCCCCCCn1ccc2ccccc21 [Compound 5j, 1-Decyl-1H-indole] | < 0.8 | > 62.5 µM | 48.6 ± 1.4 µM | –
23 | CCCCCCCCCCCCN1C(=O)C(=O)c2ccccc21 [N-dodecyl isatin] | – | – | – | Ki (BChE [4]): > 100 µM; Ki (AChE [5]): > 100 µM
24 | CCCCCCCCCCCCCCCCN1C(=O)C(=O)c2ccccc21 [N-hexadecyl isatin] | – | – | – | Ki (BChE [4]): > 100 µM; Ki (AChE [5]): > 100 µM
25 | O=C1Nc2ccccc2C1=O [isatin, indoline-2,3-dione] | – | – | – | IC50 (AChE [2]): > 1000 µM; IC50 (BChE [10]): > 1000 µM
